Test results reported in ChEMBL document CHEMBL3301562, “MMV Box screening against Plasmodium falciparum protein kinases and aminoacyl tRNA synthetases”.

Assays:
Format in all cases: functional
[1] = molecular target: T1, Cdk-related protein kinase 6 (Plasmodium falciparum, UniProt O77239); experiment: Final concentrations were 1.5 uM ATP, 5 mM MnCl2, and 15 ug/ml PK6 in a buffer of 100 mM Tris-HCl (pH 7.5). 50 ug/mL MBP was provided as the substrate; 10 uM staurosporine was used as a control inhibitor. Incubation time was 3 hours and 40 minutes.The catalytic activity of each kinase was considered proportional to ATP consumed, as determined from measurements of residual [ATP] with the luciferase-based reagent Kinase-Glo (Promega) following incubation. Luminescence (proportional to residual [ATP]) was measured on the plate readers FLx800 (BioTek Instruments, Winooski, VT, USA) and MicroBeta2.
T1 sequence (O77239 whole entry): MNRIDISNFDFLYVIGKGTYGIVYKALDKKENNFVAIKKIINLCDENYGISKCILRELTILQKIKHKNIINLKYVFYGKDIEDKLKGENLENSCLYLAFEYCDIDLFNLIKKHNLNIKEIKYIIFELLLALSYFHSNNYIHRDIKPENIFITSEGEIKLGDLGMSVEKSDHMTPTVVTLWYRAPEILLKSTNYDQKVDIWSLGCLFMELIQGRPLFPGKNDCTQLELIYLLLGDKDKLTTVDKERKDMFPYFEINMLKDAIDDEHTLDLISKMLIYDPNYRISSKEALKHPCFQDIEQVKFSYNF

[2] = molecular target: T2, Putative uncharacterized protein pk7 (Plasmodium falciparum, UniProt O96214); experiment: Final concentrations were 1 uM ATP, 2 mM DTT, 20 mM MgCl2, 2 mM MnCl2, 0.01% BSA, and 6 ug/ml PK7, in a buffer of 20 mM Tris-HCl (pH 7.5). The enzyme itself was the only substrate present (since autophosphorylation occurs); 100 uM 1NA-PP1 was used as a control inhibitor. Incubation time was 3 hours.
T2 sequence (O96214 whole entry): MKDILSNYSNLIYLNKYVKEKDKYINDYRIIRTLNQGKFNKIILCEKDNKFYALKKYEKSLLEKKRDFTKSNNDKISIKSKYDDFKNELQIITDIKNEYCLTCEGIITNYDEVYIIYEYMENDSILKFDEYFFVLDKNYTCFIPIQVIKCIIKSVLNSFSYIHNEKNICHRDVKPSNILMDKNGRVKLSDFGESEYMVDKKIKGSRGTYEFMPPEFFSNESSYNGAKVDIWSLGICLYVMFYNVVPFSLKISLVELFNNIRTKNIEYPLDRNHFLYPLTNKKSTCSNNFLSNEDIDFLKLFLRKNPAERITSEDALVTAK

[3] = molecular target: T3, Mitogen-activated protein kinase (Plasmodium falciparum, UniProt Q25917); experiment: Final concentrations were 1 uM ATP, 0.5 mM DTT, 1 mM MgCl2, 0.5 mg/mL BSA, and 10 ug/ml MAP2 in a buffer of 50 mM HEPES (pH 7.0). 0.5 mg/mL histone III-S served as the substrate (13); 100 uM AMP-PNP, an ATP analog, was used as a control inhibitor. Incubation time was 4 hours.
T3 sequence (Q25917 whole entry): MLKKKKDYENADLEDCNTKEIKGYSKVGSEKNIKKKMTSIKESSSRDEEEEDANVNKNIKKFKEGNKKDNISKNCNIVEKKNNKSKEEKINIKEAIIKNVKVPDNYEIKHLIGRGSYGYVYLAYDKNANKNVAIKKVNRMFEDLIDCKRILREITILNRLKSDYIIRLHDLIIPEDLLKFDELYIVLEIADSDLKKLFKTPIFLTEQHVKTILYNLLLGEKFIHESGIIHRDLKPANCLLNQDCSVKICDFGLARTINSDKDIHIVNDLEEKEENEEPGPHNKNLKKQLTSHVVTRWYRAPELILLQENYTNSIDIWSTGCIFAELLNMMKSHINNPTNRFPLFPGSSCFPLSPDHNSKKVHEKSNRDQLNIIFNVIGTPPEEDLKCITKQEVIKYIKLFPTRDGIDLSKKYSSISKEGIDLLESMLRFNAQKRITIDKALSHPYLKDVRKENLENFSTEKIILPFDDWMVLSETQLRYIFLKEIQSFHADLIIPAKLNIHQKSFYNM

[4] = molecular target: Calcium-dependent protein kinase 1 (Plasmodium falciparum, UniProt P62344); experiment: MMV: CDPK1 Protein kinase inhibition assay using recombinant PfCDPK1, syntide 2 peptide substrate, ATP and KinaseGlo to measure % inhibition at 1 uM MMV box compound.
Calcium-dependent protein kinase 1, sequence (P62344 whole entry): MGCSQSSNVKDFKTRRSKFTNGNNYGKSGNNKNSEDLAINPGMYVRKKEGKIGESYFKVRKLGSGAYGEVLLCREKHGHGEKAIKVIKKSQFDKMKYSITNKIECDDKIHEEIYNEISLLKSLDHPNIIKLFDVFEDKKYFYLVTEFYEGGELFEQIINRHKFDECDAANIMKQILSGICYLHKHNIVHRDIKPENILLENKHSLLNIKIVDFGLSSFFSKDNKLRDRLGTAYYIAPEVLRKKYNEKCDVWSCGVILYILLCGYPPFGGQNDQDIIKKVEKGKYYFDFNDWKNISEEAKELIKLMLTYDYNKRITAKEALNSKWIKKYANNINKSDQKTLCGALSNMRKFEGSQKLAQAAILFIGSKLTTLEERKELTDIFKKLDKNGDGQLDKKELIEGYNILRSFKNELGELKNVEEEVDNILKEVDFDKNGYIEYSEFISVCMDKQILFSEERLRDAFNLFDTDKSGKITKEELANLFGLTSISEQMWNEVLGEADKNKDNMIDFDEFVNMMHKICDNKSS

[5] = molecular target: T4, Calcium-dependent protein kinase 4 (Plasmodium falciparum (isolate 3D7), UniProt Q8IBS5); experiment: MMV: CDPK4 Protein kinase inhibition assay using recombinant PfCDPK4, syntide2 peptide substrate, ATP and KinaseGlo to measure % inhibition at 1 uM MMV box compound.
T4 sequence (Q8IBS5 whole entry): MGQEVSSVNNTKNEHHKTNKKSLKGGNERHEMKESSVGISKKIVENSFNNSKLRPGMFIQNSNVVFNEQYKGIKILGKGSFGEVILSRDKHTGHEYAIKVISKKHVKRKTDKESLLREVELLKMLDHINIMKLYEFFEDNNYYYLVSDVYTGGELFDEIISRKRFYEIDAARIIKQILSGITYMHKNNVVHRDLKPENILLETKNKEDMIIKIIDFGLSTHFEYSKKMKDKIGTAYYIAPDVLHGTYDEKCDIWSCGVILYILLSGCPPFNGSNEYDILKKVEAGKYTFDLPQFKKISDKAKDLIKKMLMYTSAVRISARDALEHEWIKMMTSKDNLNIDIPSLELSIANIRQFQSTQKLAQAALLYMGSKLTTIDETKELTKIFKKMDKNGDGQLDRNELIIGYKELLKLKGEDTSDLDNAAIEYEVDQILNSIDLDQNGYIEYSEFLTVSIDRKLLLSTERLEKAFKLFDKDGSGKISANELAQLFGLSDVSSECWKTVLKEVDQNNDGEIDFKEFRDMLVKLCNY

[6] = molecular target: T5, Proline--tRNA ligase (Plasmodium falciparum (isolate 3D7), UniProt Q8I5R7); experiment: MMV: ProRS recombinant Plasmodium falciparum Prolyl-tRNA-synthetase, assay with yeast tRNA, ATP, and proline and 3 uM MMV malaria box compound, assay read out with kinase glo as % inhibition.
T5 sequence (Q8I5R7 whole entry): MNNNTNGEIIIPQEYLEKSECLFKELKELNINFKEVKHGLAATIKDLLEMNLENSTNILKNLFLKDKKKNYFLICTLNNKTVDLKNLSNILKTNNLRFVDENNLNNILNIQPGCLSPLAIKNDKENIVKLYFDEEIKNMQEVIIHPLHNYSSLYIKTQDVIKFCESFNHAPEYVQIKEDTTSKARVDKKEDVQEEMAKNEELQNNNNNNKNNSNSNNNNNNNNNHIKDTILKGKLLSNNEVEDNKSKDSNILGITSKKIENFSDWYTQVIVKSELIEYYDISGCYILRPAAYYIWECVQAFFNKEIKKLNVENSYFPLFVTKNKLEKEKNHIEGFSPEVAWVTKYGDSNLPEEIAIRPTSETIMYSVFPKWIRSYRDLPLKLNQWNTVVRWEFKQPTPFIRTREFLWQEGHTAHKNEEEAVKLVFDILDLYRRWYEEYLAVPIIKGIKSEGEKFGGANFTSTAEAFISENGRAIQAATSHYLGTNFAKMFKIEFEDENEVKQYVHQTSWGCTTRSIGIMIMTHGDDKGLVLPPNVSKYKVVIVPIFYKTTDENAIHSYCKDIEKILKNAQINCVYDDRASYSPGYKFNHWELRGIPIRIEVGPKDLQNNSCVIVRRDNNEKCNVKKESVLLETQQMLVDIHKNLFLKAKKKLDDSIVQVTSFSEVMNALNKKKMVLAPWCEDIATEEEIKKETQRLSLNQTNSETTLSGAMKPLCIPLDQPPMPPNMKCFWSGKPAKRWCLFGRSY

[7] = molecular target: Lysine--tRNA ligase (Plasmodium falciparum (isolate 3D7), UniProt Q8IDJ8); experiment: MMV: KRS recombinant Plasmodium falciparum Lysyl-tRNA-synthetase, assay with yeast tRNA, ATP, and lysine and 3 uM MMV malaria box compound, assay read out with kinase glo as % inhibition.
Lysine--tRNA ligase, sequence (Q8IDJ8 whole entry): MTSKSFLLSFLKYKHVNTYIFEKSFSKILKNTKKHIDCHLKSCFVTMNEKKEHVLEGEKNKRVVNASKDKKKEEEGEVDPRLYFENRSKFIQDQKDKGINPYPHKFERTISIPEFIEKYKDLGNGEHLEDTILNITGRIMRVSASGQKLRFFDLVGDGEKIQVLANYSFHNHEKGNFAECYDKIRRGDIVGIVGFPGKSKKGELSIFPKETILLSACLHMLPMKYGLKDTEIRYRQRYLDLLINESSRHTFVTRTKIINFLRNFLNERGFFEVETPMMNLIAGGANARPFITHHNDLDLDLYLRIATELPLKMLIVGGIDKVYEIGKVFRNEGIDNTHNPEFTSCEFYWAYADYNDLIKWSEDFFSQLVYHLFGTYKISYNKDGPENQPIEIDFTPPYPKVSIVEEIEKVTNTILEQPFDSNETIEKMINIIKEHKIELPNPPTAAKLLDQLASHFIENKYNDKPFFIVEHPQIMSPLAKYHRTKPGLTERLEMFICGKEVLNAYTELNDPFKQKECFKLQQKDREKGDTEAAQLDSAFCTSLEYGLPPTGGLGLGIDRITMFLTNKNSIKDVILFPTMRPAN

Structure (SMILES) | IC50 [1] [nM] | IC50 [2] [nM] | IC50 [3] [nM] | IC50 [4] [nM] | IC50 [5] [nM] | IC50 [6] [nM] | IC50 [7] [nM]
CCN1CCCC1CNc1[nH]cnc2c3cc(Cl)ccc3nc1-2 (configuration not stated) | > 1000 | > 1000 | > 1000 | > 1000 | > 1000 | > 2500 | > 2500
C[n+]1c2ccccc2nc2ccc(NCCO)cc21 | > 1000 | > 1000 | > 1000 | > 1000 | > 1000 | > 2500 | > 2500
Cc1ccc(-c2cc3c(nn2)-c2ccccc2C3=O)cc1 | > 1000 | > 1000 | > 1000 | > 1000 | > 1000 | > 2500 | > 2500
COc1ccc(-n2ccnc2SCC(=O)Nc2cc(C)ccc2C)c(OC)c1 | > 1000 | > 1000 | > 1000 | > 1000 | > 1000 | > 2500 | > 2500
CCOc1cc2c(cc1OCC)C(c1cc(OC)c(O)cc1Cl)NCC2 (configuration not stated) | > 1000 | > 1000 | > 1000 | > 1000 | > 1000 | > 2500 | > 2500
COc1cccc(C=Cc2nc(=O)c3ccccc3o2)c1OC | > 1000 | > 1000 | > 1000 | > 1000 | > 1000 | > 2500 | > 2500
COc1ccc(C(=O)Nc2nonc2-c2ccc(OC)c(OC)c2)cc1Cl | > 1000 | > 1000 | > 1000 | > 1000 | > 1000 | > 2500 | > 2500
COc1ccc2c(c1)OC(O)(C(F)(F)C(F)(F)F)CC2=O (configuration not stated) | > 1000 | > 1000 | > 1000 | > 1000 | > 1000 | > 2500 | > 2500
CCOc1cc(Cl)c(C(C)NC(=O)c2ccccc2)cc1OCC (configuration not stated) | > 1000 | > 1000 | > 1000 | > 1000 | > 1000 | > 2500 | > 2500
c1ccc2cc3c(Nc4ccc(N5CCOCC5)cc4)ccnc3cc2c1 | > 1000 | > 1000 | > 1000 | > 1000 | > 1000 | > 2500 | > 2500
CCOC(=O)c1cn(CC)c2cc(N3CCCCC3)c(F)cc2c1=O | > 1000 | > 1000 | > 1000 | > 1000 | > 1000 | > 2500 | > 2500
CCn1c(SCC(=O)Nc2cc(C(F)(F)F)ccc2Cl)nc2ccccc2c1=O | > 1000 | > 1000 | > 1000 | > 1000 | > 1000 | > 2500 | > 2500
Cc1ccc(Cn2c(N3CCC(C(=O)NCc4cccs4)CC3)nc3ccccc32)cc1 | > 1000 | > 1000 | > 1000 | > 1000 | > 1000 | > 2500 | > 2500
O=C(Nc1ccc(Cl)cc1C(=O)Nc1ccncc1)c1ccc(Cl)cc1Cl | > 1000 | > 1000 | > 1000 | > 1000 | > 1000 | > 2500 | > 2500
CCOc1ccc(-c2nonc2NC(=O)c2cccc(C)c2)cc1OCC | > 1000 | > 1000 | > 1000 | > 1000 | > 1000 | > 2500 | > 2500
CCOC(=O)c1ccc2[nH]c(-c3ccccc3)cc(=O)c2c1 | > 1000 | > 1000 | > 1000 | > 1000 | > 1000 | > 2500 | > 2500
Cc1cc(Nc2ccc(Cl)cc2)n2nc(C(F)(F)F)nc2n1 | > 1000 | > 1000 | > 1000 | > 1000 | > 1000 | > 2500 | > 2500
CCCCCCOC(=O)C1=C(C)NC(=O)NC1c1ccccc1F (configuration not stated) | > 1000 | > 1000 | > 1000 | > 1000 | > 1000 | > 2500 | > 2500
Cc1ccc(Nc2nc(NCCO)c3ccccc3n2)cc1C | > 1000 | > 1000 | > 1000 | > 1000 | > 1000 | > 2500 | > 2500
CC1CCCCN1CCCNC(=O)c1ccc2c(c1)sc1nc(-c3ccc(F)cc3)cn12 (configuration not stated) | > 1000 | > 1000 | > 1000 | > 1000 | > 1000 | > 2500 | > 2500
COc1ccc(NC(=O)C2c3ccccc3C(=O)N(CC(C)C)C2c2cccs2)cc1 (configuration not stated) | > 1000 | > 1000 | > 1000 | > 1000 | > 1000 | > 2500 | > 2500
